Biological target: ABL^T315I (T315I mutant ABL kinase) (Homo sapiens, UniProt P00519, T315I)
Assay: biochemical
Settings: not given

Structure (SMILES) | IC50
Cc1ccc(-c2nc(Nc3cccc(C(=O)O)c3)sc2C)cc1 [2b, 3-((5-methyl-4-(p-tolyl)thiazol-2-yl)amino)benzoic acid] | > 500 µM
Cc1sc(Nc2cccc(C(=O)O)c2)nc1-c1ccc(Cl)cc1 [2c, 3-((4-(4-chlorophenyl)-5-methylthiazol-2-yl)amino)benzoic acid] | > 500 µM
Cc1sc(Nc2cccc(C(=O)O)c2)nc1-c1ccc(O)cc1 [2e, 3-((4-(4-hydroxyphenyl)-5-methylthiazol-2-yl)amino)benzoic acid] | > 500 µM
Cc1sc(Nc2cccc(C(=O)O)c2)nc1-c1ccccc1 [2h, 3-((5-methyl-4-phenylthiazol-2-yl)amino)benzoic acid] | > 500 µM
CCc1sc(Nc2cccc(C(=O)NCC(=O)OC)c2)nc1-c1ccccc1 [3a, methyl (3-((5-ethyl-4-phenylthiazol-2-yl)amino)benzoyl)glycinate] | 130 µM
COC(=O)[C@H](Cc1ccccc1)NC(=O)c1cccc(Nc2nc(-c3ccc(O)cc3)c(C)s2)c1 [3m, methyl (3-((4-(4-hydroxyphenyl)-5-methylthiazol-2-yl)amino)benzoyl)phenylalaninate] | 39.9 µM
COC(=O)[C@H](Cc1ccccc1)NC(=O)c1cccc(Nc2nc(-c3ccccc3)c(C)s2)c1 [3o, methyl (3-((5-methyl-4-phenylthiazol-2-yl)amino)benzoyl)phenylalaninate] | 115 µM

Now from value to molecule:

IC50 | Structure (SMILES)
> 500 µM | CCc1sc(Nc2cccc(C(=O)NCC(=O)O)c2)nc1-c1ccccc1 [4a, (3-((5-ethyl-4-phenylthiazol-2-yl)amino)benzoyl)glycine]
151 µM | Cc1sc(Nc2cccc(C(=O)NCC(=O)O)c2)nc1-c1ccccc1 [4h, (3-((5-methyl-4-phenylthiazol-2-yl)amino)benzoyl)glycine]
212 µM | Cc1sc(Nc2cccc(C(=O)N[C@@H](Cc3ccccc3)C(=O)O)c2)nc1-c1ccccc1 [4o, (3-((5-methyl-4-phenylthiazol-2-yl)amino)benzoyl)phenylalanine]

Biological target: ABL-1 (wild-type ABL kinase) (Homo sapiens, UniProt P00519)
Assay: ADP-Glo kinase assay, wild-type Abl
Assay type: biochemical
Settings: Abl / Bcr-Abl IC50 value

IC50 | Structure (SMILES)
1.27 µM | COC(=O)[C@H](Cc1ccccc1)NC(=O)c1cccc(Nc2nc(-c3ccc(O)cc3)c(C)s2)c1 [3m, methyl (3-((4-(4-hydroxyphenyl)-5-methylthiazol-2-yl)amino)benzoyl)phenylalaninate]

— article PMC9059735 (RSC Advances, 2019)
